# Patent publication US8372836B2, “Spray dried formulation” (Bend Research, Inc., priority 2006, dated 2013)
# Read-outs that look alike come from different tables or passages of the source.
# Tests used:
# [1] = Solubility in volatile organic solvents; format: physicochemical; details: for solubility: organic solvent or mixture
# From the text: The drug is poorly soluble in volatile organic solvents. By “volatile organic solvent” is meant a solvent selected from the group consisting of acetone, methanol, tetrahydrofuran, ethyl acetate, mixtures of any one of these with water, and mixtures of these with each other. […] As used herein, the solubility is assumed to be measured at ambient temperature and pressure.
# [2] = In vitro dissolution test of Drug 1 dispersions in MFD solution; format: physicochemical; details: 37° C.
# Experimental: For these tests, suspensions were formed by adding a sufficient quantity of the dispersions of Example 1 or Example 2 to water containing 0.5 wt % Methocel Type A such that each suspension contained 7.2 mgA/mL Drug 1. Next, a 50 μL sample of each suspension was added to microcentrifuge tubes in duplicate. […] HPLC analysis was performed using an Zorbax RX-C18 4.6×75 mm […] column, with a mobile phase of 63/37 v/v aqueous 0.1 wt % trifluoroacetic acid/acetonitrile, and UV absorbance measured at 220 nm.
# The concentrations of dissolved Drug 1 obtained in these samples were used to determine the maximum dissolved concentration of Drug 1 in solution during the first ninety minutes of the test (MDC90), the area under the concentration-versus-time curve during the initial ninety minutes (“AUC90”), and the concentration of Drug 1 at 1200 minutes (“C1200”).
# [3] = Acidic pKa; format: physicochemical; details: for pKa: distilled water
# [4] = Aqueous solubility of neutral form of drug (MFD or PBS solution, pH 6.5); format: physicochemical
# [5] = In vitro dissolution test of Drug 2 dispersion in MFD solution; format: physicochemical; details: 37° C.
# [6] = dissolved Drug 3; dispersion pre-suspended in 0.5 wt % Methocel A + 15 mg/mL HPMCAS-HF in PBS, then MFD; 200 μgA/mL dosed; Control 3 as in Example 5 test
# [7] = In vitro dissolution test of Drug 3 dispersion in MFD solution; format: physicochemical; details: dissolved Drug 3, initial 90 min; MFD solution pH 6.5, 37° C., 200 μgA/mL dosed
"solubility ([1]; acetone, read-out: solubility in acetone) [µg/mL]","solubility in methanol ([1]; crystalline neutral form, methanol)","solubility ([1]; methanol, read-out: solubility in methanol) [µg/mL]",C1200 ([2]; Drug 1 concentration at 1200 minutes) [µg/mL],"MDC90 ([2]; dissolved Drug 1, first 90 min, 200 μgA/mL dosed) [µg/mL]","AUC90 ([2]; dissolved Drug 1, initial 90 min, 200 μgA/mL dosed) [µg·min/mL]",pKa [3],"solubility ([4]; fassif, MFD solution pH 6.5, read-out: solubility in a pH 6.5 MFD solution) [µg/mL]",C1200 ([5]; Drug 2 concentration at 1200 minutes) [µg/mL],"AUC90 ([5]; dissolved Drug 2, initial 90 min, 200 μgA/mL dosed) [µg·min/mL]",Structure (SMILES),AUC90 [6] [min*μgA/mL],MDC90 [6] [μgA/mL],"solubility ([1]; THF, 25° C., neutral form, read-out: solubility in THF at 25° C.) [µg/mL]","solubility ([1]; acetone, 25° C., neutral form, read-out: solubility in acetone at 25° C.) [µg/mL]","solubility ([1]; methanol, 25° C., neutral form, read-out: solubility in methanol at 25° C.) [µg/mL]",acidic pKa [3],AUC90 [7] [min*μgA/mL],MDC90 [7] [μgA/mL],"solubility ([4]; phosphate buffered saline, aqueous buffer, PBS pH 6.5, read-out: solubility in phosphate buffered saline solution at pH of 6.5) [µg/mL]"
25,about 0.059 mgA/mL,59,<0.1,1,<88,7.3,~3,,,"Nc1nc(C(=O)NCC2CC2)nc2c1[nH]c(=O)n2Cc1ccccc1 [Drug 1, 6-amino-9-benzyl-8-oxo-8,9-dihydro-7H-purine-2-carboxylic acid cyclopropylmethyl-amide]",,,,,,,,,
,,,,,,11.3,,1.0,44,"Nc1nc(C(F)(F)F)cc2c1[nH]c(=O)n2Cc1ccccc1 [Drug 2, 4-amino-1-benzyl-6-trifluoromethyl-1,3-dihydro-imidazo[4,5-c]pyridine-2-one]",,,,,,,,,
,,,,,,,,,,"Cc1c(S(=O)(=O)c2ccc(=O)[nH]n2)oc2ccc(Cl)cc12 [Drug 3, 6-(5-chloro-3-methyl-benzofuran-2-sulfonyl)-2H-pyridazin-3-one]",540,8,~12000,~4700,~1500,6.9,540,8,< 1
